These results are taken from US20250129104A1, “7H-PYRROLO[2,3-D]PYRIMIDINES AND PREPARATION AND USES THEREOF” (BioSplice Therapeutics, Inc., priority 2021, published 2025).

In assay [1] the target is recombinant DYRK1A kinase (Homo sapiens (Human), UniProt Q13627). Nature of the assay: DYRK1A kinase assay (Ser/Thr 18 peptide Z-lyte FRET assay). Format: biochemical. As to conditions: DYRK1A kinase activity; 15 μM ATP, 1 h room temperature; method text calls the value IC50. In a few lines: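 Recombinant human DYRK1A (0.25 μg/mL) with 15 μM ATP and 4 μM Ser/Thr 18 peptide, 1 h at room temperature with compound (11-point, 1:3, 10 μM top, duplicate). Z-lyte development 1 h, then coumarin/fluorescein FRET emission ratio converted to % phosphorylation; IC50 by non-linear regression.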

Assay [2] relates to Tau phosphorylation at Thr212 (pThr212). The assay can be described thus: tau phosphorylation assay: phosphoTau (Thr212) AlphaLISA in HEK293T cells transfected with DYRK1A and MAPT. Format: cell-based. As to conditions: HEK-293T; HEK293T cells transfected with human DYRK1A and MAPT; 18-24 h compound treatment; read-out: pTau (Thr212) EC50. The method, then: Representative compounds were screened using the assay procedure for tau phosphorylation activity described below.
HEK293T cells (ATCC, CRL3216) cultured in DMEM (Thermo Fisher Scientific, 10566024) supplemented with 10% FBS (Corning, 35-011-CV) and Penicillin/Streptomycin (Thermo Fisher Scientific, 15140163) were seeded in a 75 cm^2 flask at 8.1×10^6 cells/flask. The HEK293T cells were then transiently transfected with 5 μg DYRK1A (NM_001396) human untagged clone (OriGene, SC314641) and 2.5 μg MAPT (441 a.a. Tau gene) (NM_005910) human untagged clone (OriGene, TP313312) using Lipofectamine 3000 (Thermo Fisher Scientific, L30000015) and incubated for 20-30 hours in a humidified incubator at 37° C. and 5% CO2. Post-incubation, HEK293T cells transfected with the DYRK1A and MAPT expression vectors were harvested and seeded in BioCoat poly-D lysine coated 96-well plates (Corning, 354461) at 3×10^4 cells/well.
The above synthesized compounds were screened using the cell assay procedure to assess decreased Tau phosphorylation at Thr212 (pThr212) described below.
Each compound was dissolved in DMSO (Sigma-Aldrich, D8418-100 mL) as a 10 mM stock. 10 mM stocks were serially diluted 1:3, 10-point dose-response curve and added to the cells with a final concentration ranging from 20 μM to 1.1 nM. Cell were treated with compounds in duplicate and incubated for 18-24 hours in a humidified incubator at 37° C. and 5% CO2.
Following the overnight compound treatment, cells were lysed with 1× Alpha Surefire Ultra Lysis Buffer (Perkin Elmer, ALSU-LB-100ML) complemented with 1× Halt Phosphatase Inhibitor Cocktail (Thermo Fisher Scientific, 78427) and 1× Halt Protease Inhibitor Cocktail (Thermo Fisher Scientific, 78438). Lysates were spun down at 12,000 g for 10 min to remove any cellular debris and 5 μL of lysates were dispensed into a 384-well Opti-Plate (Perkin Elmer, 6007290) for the measurement of Tau phosphorylation in the phosphoTau (Thr212) AlphaLISA assay. Donor antibody, biotinylated HT7Tau (Thermo Fisher Scientific, MN1000B), and acceptor antibody, pThr212Tau (Thermo Fisher Scientific, 44740G) were both added to the cell lysates at a final concentration of 3 nM and incubated for 1 hour at room temperature. Following incubation of the lysates with the donor and acceptor antibodies, anti-rabbit IgG (Fc specific) AlphaLISA acceptor beads (Perkin Elmer, AL104C) were added at a 10 μg/mL final concentration and incubated for 1 hour at room temperature protected from light. Lastly, AlphaScreen streptavidin donor beads (PerkinElmer, 6760002) were added at 40 μg/mL final concentration and incubated for 1 hour at room temperature protected from light. Plates were read at […], and Em=615 nm on the EnVision Multilabel Plate Reader (Perkin Elmer). PhosphoTau (Thr212) AlphaLISA signal was used to plot, draw the curve fitting, and determine each compound's EC50 in Prism (GraphPad).
For orientation: Alpha assays give light when donor and acceptor beads are brought close together.

For the molecule `FC1(F)CCC(Nc2ncc3c(-c4ccc5ncnn5c4)c[nH]c3n2)CC1` [Compound 746, 5-([1,2,4]Triazolo[1,5-a]pyridin-6-yl)-N-(4,4-difluorocyclohexyl)-7H-pyrrolo [2,3-d]pyrimidin-2-amine], the concentration giving a half-maximal response (EC50) – broadly, the concentration at which the effect is half-maximal – is 29.2 nM in assay [1] and 521 nM in assay [2].

Take `FC1(CNc2ncc3c(-c4ccc5ncnn5c4)c[nH]c3n2)CCCCC1` [Compound 748, 5-([1,2,4]Triazolo[1,5-a]pyridin-6-yl)-N-((1-fluorocyclohexyl)methyl)-7H-pyrrolo[2,3-d]pyrimidin-2-amine]: the half-maximal effective concentration (EC50) in assay [1] was 20 nM; in assay [2], 174 nM.

On to `FC1(F)CCC(CNc2ncc3c(-c4ccc5ncnn5c4)c[nH]c3n2)CC1` [Compound 749, 5-([1,2,4]Triazolo[1,5-a]pyridin-6-yl)-N-((4,4-difluorocyclohexyl)methyl)-7H-pyrrolo[2,3-d]pyrimidin-2-amine], for which the half-maximal effective concentration (EC50) in assay [1] was determined as 7 nM; in assay [2] it was 80 nM.

Regarding `CN1CCC(Nc2ncc3c(-c4ccc5ncnn5c4)c[nH]c3n2)CC1` [Compound 750, 5-([1,2,4]Triazolo[1,5-a]pyridin-6-yl)-N-(1-methylpiperidin-4-yl)-7H-pyrrolo [2,3-d]pyrimidin-2-amine], the 50% effective concentration (EC50) in assay [1] was 26.9 nM; in assay [2], 67 nM.

On to `CC(C)CNc1ncc2c(-c3cc(F)c4ncnn4c3)c[nH]c2n1` [Compound 771, 5-(8-Fluoro-[1,2,4]triazolo[1,5-a]pyridin-6-yl)-N-isobutyl-7H-pyrrolo[2,3-d]pyrimidin-2-amine], for which the EC50 in assay [1] is 18 nM; in assay [2], 470 nM.

For `CC(C)(F)CNc1ncc2c(-c3ccn4ncnc4c3)c[nH]c2n1` [Compound 805, 5-([1,2,4]Triazolo[1,5-a]pyridin-7-yl)-N-(2-fluoro-2-methylpropyl)-7H-pyrrolo[2,3-d]pyrimidin-2-amine], the EC50 in assay [1] amounted to 11.3 nM; in assay [2] it was 439 nM.

Turning to `C[C@@H](Nc1ncc2c(-c3ccc4nnn(C)c4c3)c[nH]c2n1)C1CC1` [Compound 831, (R)—N-(1-Cyclopropylethyl)-5-(1-methyl-1H-benzo[d][1,2,3]triazol-6-yl)-7H-pyrrolo[2,3-d]pyrimidin-2-amine], the figures for the 50% effective concentration (EC50) in assay [1] and in assay [2] were 7.3 nM and 165 nM, respectively.

As for `CO[C@H]1CC[C@@H](Nc2ncc3c(-c4ccc5nnn(C)c5c4)c[nH]c3n2)CC1` [Compound 838, N-(cis-4-Methoxycyclohexyl)-5-(1-methyl-1H-benzo[d][1,2,3]triazol-6-yl)-7H-pyrrolo[2,3-d]pyrimidin-2-amine], the half-maximal effective concentration (EC50) stood at 9.8 nM in assay [1] and 25 nM in assay [2].

On to `CC(C)(F)CNc1ncc2c(-c3ccc4nccn4n3)c[nH]c2n1` [Compound 909, N-(2-Fluoro-2-methylpropyl)-5-(imidazo[1,2-b]pyridazin-6-yl)-7H-pyrrolo [2,3-d]pyrimidin-2-amine], for which the values for the EC50 in assay [1] and in assay [2] were 3.4 nM and 40 nM, respectively.

For `CC(F)(F)CNc1ncc2c(-c3ccc4nccn4n3)c[nH]c2n1` [Compound 910, N-(2,2-Difluoropropyl)-5-(imidazo[1,2-b]pyridazin-6-yl)-7H-pyrrolo[2,3-d]pyrimidin-2-amine], the EC50 was found to be 18.6 nM in assay [1] and 283 nM in assay [2].

`C[C@@H](Nc1ncc2c(-c3ccc4nccn4n3)c[nH]c2n1)C(F)(F)F` [Compound 912, (R)-5-(Imidazo[1,2-b]pyridazin-6-yl)-N-(1,1,1-trifluoropropan-2-yl)-7H-pyrrolo[2,3-d]pyrimidin-2-amine]: the results for the EC50 in assay [1] and in assay [2] were 5.5 nM and 96 nM, respectively.

Regarding `C[C@H](Nc1ncc2c(-c3ccc4nccn4n3)c[nH]c2n1)C(F)(F)F` [Compound 913, (S)-5-(Imidazo[1,2-b]pyridazin-6-yl)-N-(1,1,1-trifluoropropan-2-yl)-7H-pyrrolo[2,3-d]pyrimidin-2-amine], the EC50 in assay [1] was 6.4 nM; in assay [2] it was 228 nM.

Turning to `CC1(CNc2ncc3c(-c4ccc5nccn5n4)c[nH]c3n2)CC1` [Compound 919, 5-(Imidazo[1,2-b]pyridazin-6-yl)-N-((1-methylcyclopropyl)methyl)-7H-pyrrolo[2,3-d]pyrimidin-2-amine], the figures for the EC50 in assay [1] and in assay [2] were 4 nM and 30 nM, respectively.

On to `FC(F)(F)C1(CNc2ncc3c(-c4ccc5nccn5n4)c[nH]c3n2)CC1` [Compound 920, 5-(Imidazo[1,2-b]pyridazin-6-yl)-N-((1-(trifluoromethyl)cyclopropyl)methyl)-7H-pyrrolo[2,3-d]pyrimidin-2-amine], for which the EC50 in assay [1] came out at 6.1 nM; in assay [2] it was 70 nM.

Take `FC1(CNc2ncc3c(-c4ccc5nccn5n4)c[nH]c3n2)CCC1` [Compound 923, N-((1-Fluorocyclobutyl)methyl)-5-(imidazo[1,2-b]pyridazin-6-yl)-7H-pyrrolo[2,3-d]pyrimidin-2-amine]: the 50% effective concentration (EC50) turned out to be 2.5 nM in assay [1] and 20 nM in assay [2].

For `FC1(F)CCC(Nc2ncc3c(-c4ccc5nccn5n4)c[nH]c3n2)CC1` [Compound 924, N-(4,4-Difluorocyclohexyl)-5-(imidazo[1,2-b]pyridazin-6-yl)-7H-pyrrolo [2,3-d]pyrimidin-2-amine], the EC50 stood at 3.2 nM in assay [1] and 20 nM in assay [2].

`CO[C@H]1CC[C@@H](Nc2ncc3c(-c4ccc5nccn5n4)c[nH]c3n2)CC1` [Compound 925, 5-(Imidazo[1,2-b]pyridazin-6-yl)-N-(cis-4-methoxycyclohexyl)-7H-pyrrolo[2,3-d]pyrimidin-2-amine]: the concentration giving a half-maximal response (EC50) in assay [1] was 3.2 nM; in assay [2], 25 nM.

For `Cc1cnc2ccc(-c3c[nH]c4nc(NCC(C)(C)F)ncc34)nn12` [Compound 1038, N-(2-Fluoro-2-methylpropyl)-5-(3-methylimidazo[1,2-b]pyridazin-6-yl)-7H-pyrrolo[2,3-d]pyrimidin-2-amine], the concentration giving a half-maximal response (EC50) in assay [1] is 4.2 nM; in assay [2], 33 nM.

Take `COc1nc(CC(C)C)nc2[nH]cc(-c3ccn4nccc4c3)c12` [Compound 1113, 2-Isobutyl-4-methoxy-5-(pyrazolo[1,5-a]pyridin-5-yl)-7H-pyrrolo[2,3-d]pyrimidine]: the EC50 turned out to be 9.2 nM in assay [1] and 572 nM in assay [2].

Regarding `c1cc2cc(-c3c[nH]c4nc(C5CC5)ncc34)ccn2n1` [Compound 1115, 2-Cyclopropyl-5-(pyrazolo[1,5-a]pyridin-5-yl)-7H-pyrrolo[2,3-d]pyrimidine], the EC50 in assay [1] worked out at 24.9 nM; in assay [2], 386 nM.

Consider `CO[C@H]1C[C@@H](Nc2ncc3c(-c4ccn5nccc5c4)c[nH]c3n2)C1` [Compound 1140, N-(cis-3-Methoxycyclobutyl)-5-(pyrazolo[1,5-a]pyridin-5-yl)-7H-pyrrolo [2,3-d]pyrimidin-2-amine], for which the values for the EC50 in assay [1] and in assay [2] were 2.6 nM and 6 nM, respectively.

For `c1cc2cc(-c3c[nH]c4nc(NC5CC6(COC6)C5)ncc34)ccn2n1` [Compound 1141, 5-(Pyrazolo[1,5-a]pyridin-5-yl)-N-(2-oxaspiro[3.3]heptan-6-yl)-7H-pyrrolo [2,3-d]pyrimidin-2-amine], the EC50 is 385 nM in assay [1] and 7 nM in assay [2].

Regarding `FC1(F)CCC(Nc2ncc3c(-c4ccn5nccc5c4)c[nH]c3n2)CC1` [Compound 1142, N-(4,4-Difluorocyclohexyl)-5-(pyrazolo[1,5-a]pyridin-5-yl)-7H-pyrrolo[2,3-d]pyrimidin-2-amine], the values for the EC50 in assay [1] and in assay [2] were 5.7 nM and 32 nM, respectively.

In the case of `CO[C@H]1CC[C@@H](Nc2ncc3c(-c4ccn5nccc5c4)c[nH]c3n2)CC1` [Compound 1143, N-(cis-4-Methoxycyclohexyl)-5-(pyrazolo[1,5-a]pyridin-5-yl)-7H-pyrrolo [2,3-d]pyrimidin-2-amine], the EC50 in assay [1] amounted to 3.7 nM; in assay [2], 4 nM.
